Key:
[1] = molecular target: human Adenosine A2b receptor (Homo sapiens (Human), UniProt P29275); assay: Adenosine receptor TR-FRET binding assay (A2b); settings: inhibition of binding of 30 nM CA200645; CHO cell membranes; Ki from IC50 by Cheng and Prusoff
Description: (§1) All FRET binding experiments were conducted at room temperature in white 384-well plates, in assay binding buffer containing 1× LabMed (Cisbio, France), 100 μg/mL saponin, 1% DMSO and 0.02% pluronic acid. Binding of the fluorescently labelled Adenosine receptor antagonist XAC (CA200645, FRET acceptor) to terbium-labelled A1, A2a, A2b and A3 adenosine receptors (FRET donors) was detected by time-resolved FRET due to the close proximity of the donor and acceptor in a binding event. To investigate the ability of unlabelled test compounds to bind to Adenosine A1, A2a, A2b and A3 receptors, dose response curves were constructed that determined the ability of a range of concentrations to inhibit the binding of 30 nM CA200645 to the A2b receptor and 100 nM CA200645 to the A1, A2a, and A3 receptor.
(§2) Serial dilution (1:3 dilutions) of test compounds in neat DMSO and transfer of a 400 nL sample of test compound into the assay plate was carried out using the Mosquito (TTP Labtech, UK). The compound samples were incubated for 2 hours at room temperature with a fixed concentration of CA200645 defined for each receptor (see above) and CHO cell membranes containing the human Adenosine A1 (0.5 μg/well), A2a (0.3 μg/well), A2b (1 μg/well) or A3 (1 μg/well) receptor in 40 μL of assay buffer. Total and non-specific binding of CA200645 was determined in the absence and presence of 10 μM XAC, respectively. Following 2 hours incubation, the level of CA200645 binding was detected on a Pherastar FSX (BMG Labtech, Germany) using standard TR-FRET settings. The terbium donor was excited with three laser flashes at a wavelength of 337 nm, and donor and acceptor emission was detected at 620 nm and 665 nm wavelengths, respectively. FRET ratios were obtained by multiplying the acceptor/donor ratio value by 10,000. Specific binding was determined by subtracting the non-specific binding FRET ratio from the total binding FRET ratio. Compound IC50 curves were analysed using GraphPad Prism 7.0 (GraphPad, USA) and Ki affinity values were determined from the obtained IC50 values using the method of Cheng and Prusoff.

[2] = test system: CD8+ T cells in human whole blood; assay: Measurement of pCREB in CD8+ T cells in human whole blood; format: cell-based; settings: T-cell, 3 μM NECA, rolipram, FACS
Description: Heparinised human whole blood was pre-incubated at 37° C. with serial dilutions of A2a antagonists for 20 min. and the phosphodiesterase inhibitor rolipram to amplify the pCREB response. The adenosine receptor agonist NECA is then added at a final concentration of 3 μM and following a 60 min incubation the blood is fixed and red blood cells lysed. White blood cells are isolated, permeabilized and stained with directly conjugated fluorescent antibodies to phospho-CREB (Alexa Fluor 488) and CD8 (Alexa Fluor 647) and the level of phospho-CREB in CD8+ T cells is measured by FACS using a BD Accuri C6 Flow Cytometer.

[3] = test system: immature monocyte-derived dendritic cells (MoDC); assay: MoDC pCREB assay; format: cell-based; settings: Homo sapiens, Dendritic cell, CD209+/CD86-low cells, 1 μM NECA, 20 μM rolipram, largely specific to A2B
Description: Monocytes are isolated from human whole blood using CD14 microbeads (Miltenyi Biotec 130-050-201) and differentiated to immature monocyte-derived dendritic cells (MoDC) by culture for 5 days in Mo-DC Differentiation Medium (Miltenyi Biotec 130-094-812). MoDCs are seeded into fresh medium into U bottomed 96 well culture plates and pre-incubated at 37° C. with serial dilutions of A2A/B antagonists for 15 min. At the same time the cells are co-incubated with the phosphodiesterase inhibitor rolipram (final concentration of 20 μM) to amplify the subsequent pCREB response. Adenosine receptor agonist NECA is then added at 1 μM final concentration, leading to an increase in CREB phosphorylation. Following a 45 min incubation at 37° C., the cells are fixed, permeabilized and stained with directly conjugated fluorescent antibodies to phospho-CREB (Alexa Fluor 488), CD209 (PerCP-Cy5.5) and CD86 (APC). Samples are analysed by FACS to measure fluorescence in corresponding channels, and also forward and Side scatter. The population of CD209+/CD86-low cells corresponding to immature dendritic cells is gated for analysis of pCREB levels.
Approximately 5% of the analysed cells are positive for detection of pCREB in the absence of agonist stimulation, representing the background signalling of all pathways upstream of CREB. Following NECA stimulation this is increased to ˜80% pCREB+ve, and this increase is essentially fully reversible by A2B or dual A2A/B antagonists.
IC50 is represented as the point of inflection of a sigmoidal curve

[4] = molecular target: human Adenosine A1 receptor (Homo sapiens (Human), UniProt P30542); assay: Adenosine receptor TR-FRET binding assay (A1); settings: inhibition of binding of 100 nM CA200645; CHO cell membranes; Ki from IC50 by Cheng and Prusoff
Chain of human Adenosine A1 receptor (P30542 whole entry): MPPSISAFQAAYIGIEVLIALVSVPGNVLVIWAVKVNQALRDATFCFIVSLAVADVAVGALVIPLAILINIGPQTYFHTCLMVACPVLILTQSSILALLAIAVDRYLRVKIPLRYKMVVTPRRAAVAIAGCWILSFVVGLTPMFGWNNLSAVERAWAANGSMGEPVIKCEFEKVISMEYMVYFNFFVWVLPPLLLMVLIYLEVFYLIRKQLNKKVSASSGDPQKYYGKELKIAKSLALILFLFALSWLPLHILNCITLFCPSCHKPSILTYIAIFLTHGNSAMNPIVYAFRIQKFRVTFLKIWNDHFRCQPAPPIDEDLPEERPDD
Description: as §1, §2

[5] = molecular target: human Adenosine A2a receptor (Homo sapiens (Human), UniProt P29274); assay: Adenosine receptor TR-FRET binding assay (A2a); settings: inhibition of binding of 100 nM CA200645; CHO cell membranes; Ki from IC50 by Cheng and Prusoff
Chain of human Adenosine A2a receptor (P29274 whole entry): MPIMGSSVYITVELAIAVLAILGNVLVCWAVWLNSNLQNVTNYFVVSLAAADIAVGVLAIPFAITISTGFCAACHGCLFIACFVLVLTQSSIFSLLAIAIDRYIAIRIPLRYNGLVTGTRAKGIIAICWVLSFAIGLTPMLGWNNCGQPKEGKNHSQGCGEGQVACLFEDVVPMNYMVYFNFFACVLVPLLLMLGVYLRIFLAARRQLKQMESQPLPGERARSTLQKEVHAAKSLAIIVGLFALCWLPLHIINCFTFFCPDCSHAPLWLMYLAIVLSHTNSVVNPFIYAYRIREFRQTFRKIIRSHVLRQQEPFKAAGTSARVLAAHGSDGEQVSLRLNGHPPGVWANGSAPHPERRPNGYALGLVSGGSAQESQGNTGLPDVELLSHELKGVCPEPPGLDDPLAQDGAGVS
Description: as §1, §2

human PBMCs = assay: CD3/CD28 stimulated IL-2 release NECA reversal assay in human PBMCs; format: cell-based; settings: PBMC, reversal of 1 uM NECA, 24 hours
Description: Blood is drawn from healthy volunteers using sodium citrate as the anticoagulant (0.3% final concentration). After centrifugation of the blood over Histopaque-1077, PBMCs are collected from the Histopaque/plasma interface and washed twice in PBS (300 g for 10 mins at room temp). Cells are plated at 50,000 cells/well in 150 μl RPMI/10% FCS in 96-well cell culture plates that have been precoated with 1 μg/ml CD3 antibody. 50 μl diluted compound mix is added to the cells, to obtain final concentrations of 1 μg/ml CD28 antibody, 1 uM NECA and 0.003-10 μM adenosine receptor antagonist. Assay plates are incubated for 24 hours at 37° C. in a humidified incubator. Culture supernatant is tested for IL-2 levels using the human IL-2 Tissue Culture Kit (Meso Scale Discovery).

[6] = molecular target: human Adenosine A3 receptor (Homo sapiens (Human), UniProt P0DMS8); assay: Adenosine receptor TR-FRET binding assay (A3); settings: inhibition of binding of 100 nM CA200645; CHO cell membranes; Ki from IC50 by Cheng and Prusoff
Chain of human Adenosine A3 receptor (P0DMS8 whole entry): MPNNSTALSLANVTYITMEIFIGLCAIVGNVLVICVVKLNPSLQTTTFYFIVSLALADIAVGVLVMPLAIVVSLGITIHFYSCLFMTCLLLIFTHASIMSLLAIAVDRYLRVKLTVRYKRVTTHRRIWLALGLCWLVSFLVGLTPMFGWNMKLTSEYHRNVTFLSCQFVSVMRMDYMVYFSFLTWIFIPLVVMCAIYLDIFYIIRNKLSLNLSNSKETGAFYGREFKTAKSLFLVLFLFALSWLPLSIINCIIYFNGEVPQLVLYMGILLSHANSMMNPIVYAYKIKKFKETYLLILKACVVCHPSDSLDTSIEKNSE
Description: as §1, §2

Chain of human Adenosine A2b receptor (P29275 whole entry): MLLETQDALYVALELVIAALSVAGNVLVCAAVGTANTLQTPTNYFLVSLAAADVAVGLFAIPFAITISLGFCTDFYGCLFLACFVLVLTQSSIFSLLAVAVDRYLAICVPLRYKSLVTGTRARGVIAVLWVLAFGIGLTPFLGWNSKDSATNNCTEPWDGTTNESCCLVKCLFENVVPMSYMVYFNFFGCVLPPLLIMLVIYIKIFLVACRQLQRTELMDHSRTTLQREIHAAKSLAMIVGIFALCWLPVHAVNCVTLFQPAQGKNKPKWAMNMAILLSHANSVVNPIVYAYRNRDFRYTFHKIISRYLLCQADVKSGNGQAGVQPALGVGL

Row | SMILES | Ki [1] | IC50 [2] | IC50 [3] | Ki [4] | Ki [5] | Ki [6] | IC50 (human PBMCs)
1 | Cc1ncnc2ccc(-c3sc(NC(=O)N4CCC(N5CCNCC5)CC4)nc3-c3cccc(C#N)c3)cc12 [Example 3, N-[4-(3-Cyanophenyl)-5-(4-methylquinazolin-6-yl)thiazol-2-yl]-4-piperazin-1-yl-piperidine-1-carboxamide] | 7.7 nM | 70 nM | 6 nM | 554 nM | 2.26 nM | – | –
2 | Cc1cc(-c2sc(NC(=O)N3CC4(COC4)C3)nc2-c2cccc(C#N)c2)cc2cn[nH]c12 [Example 27, N-[4-(3-Cyanophenyl)-5-(7-methyl-1H-indazol-5-yl)thiazol-2-yl]-2-oxa-6-azaspiro[3.3]heptane-6-carboxamide] | 2.9 nM | – | – | 0.5 nM | 0.08 nM | 907 nM | –
3 | Cc1cc(-c2sc(NC(=O)N3CC4(COC4)C3)nc2-c2cccc(C#N)c2)cc2cn(C)nc12 [Example 28, N-[4-(3-Cyanophenyl)-5-(2,7-dimethylindazol-5-yl)thiazol-2-yl]-2-oxa-6-azaspiro[3.3]heptane-6-carboxamide] | 6.7 nM | – | – | 21 nM | 8.4 nM | 628 nM | –
4 | Cc1cc(-c2sc(NC(=O)N3CC4(COC4)C3)nc2-c2cccc(C#N)c2)cnn1 [Example 31, N-[4-(3-Cyanophenyl)-5-(6-methylpyridazin-4-yl)thiazol-2-yl]-2-oxa-6-azaspiro[3.3]heptane-6-carboxamide] | 38.7 nM | – | – | 57 nM | 4.31 nM | 1180 nM | –
5 | Cc1cc(-c2sc(NC(=O)N3CC4(COC4)C3)nc2-c2cccc(C#N)c2)cnc1-n1nccn1 [Example 32, N-[4-(3-Cyanophenyl)-5-[5-methyl-6-(triazol-2-yl)-3-pyridyl]thiazol-2-yl]-2-oxa-6-azaspiro[3.3]heptane-6-carboxamide] | 136 nM | – | – | 272 nM | 8.87 nM | 103 nM | –
6 | Cc1cc(-c2sc(NC(=O)N3CC4(COC4)C3)nc2-c2cccc(C#N)c2)c2cc[nH]c2n1 [Example 34, N-[4-(3-Cyanophenyl)-5-(6-methyl-1H-pyrrolo[2,3-b]pyridin-4-yl)thiazol-2-yl]-2-oxa-6-azaspiro[3.3]heptane-6-carboxamide] | 7.6 nM | – | – | 290 nM | 7.4 nM | 260 nM | –

Now those with a lower Ki [1], led by results:

Row | Ki [1] | IC50 [2] | IC50 [3] | Ki [4] | Ki [5] | Ki [6] | SMILES | IC50 (human PBMCs)
7 | 2.8 nM | 20 nM | 3 nM | 70 nM | 0.32 nM | – | Cc1ncnc2ccc(-c3sc(NC(=O)N4CCC5(CC4)COCCN5)nc3-c3cccc(C#N)c3)cc12 [Example 2, N-[4-(3-Cyanophenyl)-5-(4-methylquinazolin-6-yl)thiazol-2-yl]-4-oxa-1,9-diazaspiro[5.5]undecane-9-carboxamide] | –
8 | 2.5 nM | 50 nM | 3 nM | 12 nM | 0.25 nM | – | Cc1ncnc2ccc(-c3sc(NC(=O)N4CCNCC4CC4CC4)nc3-c3cccc(C#N)c3)cc12 (centres unmarked) [Example 2.1, N-[4-(3-Cyanophenyl)-5-(4-methylquinazolin-6-yl)thiazol-2-yl]-2-(cyclopropylmethyl)piperazine-1-carboxamide] | 1.8 nM
9 | 1.7 nM | 15 nM | 3 nM | – | 0.17 nM | – | Cc1ncnc2ccc(-c3sc(NC(=O)N4CC[C@H](C(C)(C)O)C4)nc3-c3cccc(C#N)c3)cc12 [Example 5, (3S)—N-[4-(3-Cyanophenyl)-5-(4-methylquinazolin-6-yl)thiazol-2-yl]-3-(1-hydroxy-1-methyl-ethyl)pyrrolidine-1-carboxamide] | 0.4 nM
10 | 1.4 nM | 10 nM | 3 nM | – | 0.1 nM | – | Cc1ncnc2ccc(-c3sc(NC(=O)N4CC[C@@H](C(C)(C)O)C4)nc3-c3cccc(C#N)c3)cc12 [Example 7, (3R)—N-[4-(3-Cyanophenyl)-5-(4-methylquinazolin-6-yl)thiazol-2-yl]-3-(1-hydroxy-1-methyl-ethyl)pyrrolidine-1-carboxamide] | 0.3 nM
11 | 1.6 nM | – | – | 467 nM | 6.56 nM | 126 nM | Cc1cc(-c2sc(NC(=O)N3CC4(COC4)C3)nc2-c2cccc(C#N)c2)c2[nH]ncc2n1 [Example 23, N-[4-(3-Cyanophenyl)-5-(5-methyl-1H-pyrazolo[4,3-b]pyridin-7-yl)thiazol-2-yl]-2-oxa-6-azaspiro[3.3]heptane-6-carboxamide] | –
12 | 0.5 nM | – | – | 0.3 nM | 0.07 nM | 1730 nM | Cn1cnc2ccc(-c3sc(NC(=O)N4CC5(COC5)C4)nc3-c3cccc(C#N)c3)cc21 [Example 25, N-[4-(3-Cyanophenyl)-5-(3-methylbenzimidazol-5-yl)thiazol-2-yl]-2-oxa-6-azaspiro[3.3]heptane-6-carboxamide] | –
13 | 0.5 nM | – | – | 0.3 nM | 0.33 nM | 904 nM | N#Cc1cccc(-c2nc(NC(=O)N3CC4(COC4)C3)sc2-c2ccc3nccn3c2)c1 [Example 26, N-[4-(3-Cyanophenyl)-5-imidazo[1,2-a]pyridin-6-yl-thiazol-2-yl]-2-oxa-6-azaspiro[3.3]heptane-6-carboxamide] | –
14 | 0.5 nM | 219 nM | – | 0.2 nM | 0.36 nM | 758 nM | N#Cc1cccc(-c2nc(NC(=O)N3CCOCC3)sc2-c2ccn3nccc3c2)c1 [Example 33, N-[4-(3-Cyanophenyl)-5-pyrazolo[1,5-a]pyridin-5-yl-thiazol-2-yl]morpholine-4-carboxamide] | 6.4 nM
15 | 1.6 nM | – | – | 1.6 nM | 1.4 nM | 130 nM | N#Cc1cccc(-c2nc(NC(=O)N3CC4(COC4)C3)sc2-c2ccc3ncoc3c2)c1 [Example 35, N-[5-(1,3-benzoxazol-6-yl)-4-(3-cyanophenyl)thiazol-2-yl]-2-oxa-6-azaspiro[3.3]heptane-6-carboxamide] | –
